“And” between values parts separate entries of the source, which are not always exact repeats. Identical values can stand only once. Like-named read-outs stand apart in the source and are kept apart here.
How the values were obtained:
mouse GPR40 = target: T1, mouse GPR40 (Mus musculus, UniProt Q76JU9); assay: Mouse GPR40 IP1 accumulation assay; assay type: cell-based
T1 construct: expressed in transfected cells; host or cells: CHO-K1 (methods)
Procedure: (§1) Stable cell lines expressing human GPR40 (hGPR40/HEK293), mouse GPR40 (mGPR40/CHO-K1), and rat GPR40 (rGPR40/CHO-K1) were cultured in DMEM media supplemented with 10% FBS, glutamine, non-essential amino acids, and penicillin/streptomycin. hGPR40/HEK293 & mGPR40/CHO-K1 cell media was supplemented with […] G418 (Life Technologies), while rGPR40/CHO-K1 cells were grown in […] blasticidin plus […] hygromycin (Life Technologies). Cell stocks were maintained and grown in a sub-confluent state using standard cell culture procedures. The day before the experiment, the cells were harvested with non-enzymatic cell dissociation buffer and re-suspended in DMEM supplemented with 10% FBS, glutamine, non-essential amino acids, penicillin/streptomycin at 0.15, 0.2 and 0.3 million cells per ml for human, mouse, and rat GPR40, respectively. […] The seeded plates were incubated overnight at 37 C.
(§2) On the day of the experiment, the growth media was removed from the assay by gently patting the assay plates on an absorbent sheet and 10 μl of IP1 stimulation buffer (Cis Bio IP-one Tb HTRF kit) supplemented with 50 mM LiCl is added to each well. Test compounds dissolved in DMSO were serially diluted in ½ log increments starting from 2 mM or 0.2 mM and 50 nl of the compound dilution was acoustically added to each well (final starting concentration 10 μM or 1 μM). Plates were then incubated for 60 minutes at room temperature and 10 μl of detection buffer (prepared as described in the Tb kit) is added to each well. The plates are then incubated one additional hour at room temperature. […] For each assay, a standard curve plate in which IP1 is titrated is also included. […] The percent activity at each concentration of test compound is determined using 0% activation (basal activity) determined in those wells that contain DMSO alone, while 100% activity is determined in wells that contained a concentration of a partial allosteric agonist know to activate GPR40. The % activity is then plotted versus the concentration of test compound and the dose response curve fitted to a standard 4-parameter non-linear regression model using a custom in-house developed software package (Merck & Co., Inc., MRL, Kenilworth, NJ, USA). Maximal % activity and EC50 are then determined for each test compound.

human GPR40 [1] = target: T2, human GPR40 (Homo sapiens, UniProt O14842); assay: Human GPR40 IP1 accumulation assay; assay type: cell-based; set-up: expressed in transfected cells
Procedure: as §1, §2

human GPR40 [2] = target: T2, human GPR40; assay: GPR40 binding assay, partial agonist tracer [3H]L358; set-up: expressed in transfected cells; host or cells: CHO / CHO-K1 cells, membrane preparation; details: radioligand L-001533358;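 on %Bound: 100% is tracer binding with DMSO alone and 0% is full displacement by a standard compound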
Procedure: Two small molecule tracers, the partial agonist [3H][…] and the AgoPAM [3H]25, are used to measure compound affinity at each site as described previously. Because of the allosteric coupling of the two sites and the nature of the assay, addition of a compound will either displace (binds to same site) or augment (binds to allosterically coupled site) radiotracer. Membranes expressing GPR40 were prepared from CHO cells stably expressing human GPR40. […] Sigma P8830) and were homogenized in 50 ml aliquots with a motor-driven glass Dounce homogenizer, 15 strokes at 1900 rpm on wet ice, repeating once. Homogenates were centrifuged at 2200 rpm for 10 min at 4°C. Supernatants were carefully removed and pooled. Homogenization and centrifugation were repeated until the debris pellet was translucent to maximize membrane recovery. Supernatants were then centrifuged at […] rpm for 20 min. at 4°C. […] Protein concentration was determined by Pierce BCA kit. […] The beads and membrane mixture is then vigorously mixed for 30 minutes at room temperature prior to addition to the assay. […] Next, 15 μl of the radioligand and 35 μl of the beads/membranes solution is added to each well. The assay plates are then sealed and incubated for 30 minutes at room temperature on an orbital shaker. The plates are allowed to settle for 16 hours and then counted on a TopCount scintillation counter (PE). […] Maximal % bound and IC50 are then determined for each test compound. 5 μg/well membrane together with 200 μg/well of PVT WGA SPA beads (GE #RPNG-0001) were suspended in a white 96 well plate with a final concentration of 50 μl/well in assay buffer (50 mM Tris, 10 mM MgCl2, and 2 mM EDTA). […] The plate is briefly mixed and incubated for 3-18 h at room temperature, before it is read on a MicroBeta plate counter (Perkin Elmer, MS, USA).

rat GPR40 = target: T3, rat GPR40 (Rattus norvegicus, UniProt Q8K3T4); assay: Rat GPR40 IP1 accumulation assay; assay type: cell-based
T3 construct: expressed in transfected cells; host or cells: CHO-K1 (methods)
Procedure: as §1, §2

[3] = maximal % activity vs in-house partial agonist control

T2 sequence (O14842 whole entry): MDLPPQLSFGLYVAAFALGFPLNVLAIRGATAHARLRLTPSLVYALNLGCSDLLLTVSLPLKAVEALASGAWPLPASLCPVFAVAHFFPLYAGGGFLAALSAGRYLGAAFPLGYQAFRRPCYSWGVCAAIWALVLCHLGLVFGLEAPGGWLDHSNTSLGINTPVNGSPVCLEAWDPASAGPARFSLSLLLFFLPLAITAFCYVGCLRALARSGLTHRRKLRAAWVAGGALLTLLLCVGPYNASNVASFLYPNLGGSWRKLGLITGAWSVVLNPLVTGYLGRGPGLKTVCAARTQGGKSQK
T1 sequence (Q76JU9 whole entry): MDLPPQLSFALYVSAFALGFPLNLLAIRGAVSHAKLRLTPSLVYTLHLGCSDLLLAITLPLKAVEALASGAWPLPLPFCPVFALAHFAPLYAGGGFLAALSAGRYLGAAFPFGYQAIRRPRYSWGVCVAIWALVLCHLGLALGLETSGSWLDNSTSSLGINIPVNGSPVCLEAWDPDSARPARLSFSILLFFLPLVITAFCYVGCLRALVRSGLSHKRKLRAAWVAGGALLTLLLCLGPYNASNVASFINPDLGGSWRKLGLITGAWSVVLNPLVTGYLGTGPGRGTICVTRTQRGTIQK
T3 sequence (Q8K3T4 whole entry): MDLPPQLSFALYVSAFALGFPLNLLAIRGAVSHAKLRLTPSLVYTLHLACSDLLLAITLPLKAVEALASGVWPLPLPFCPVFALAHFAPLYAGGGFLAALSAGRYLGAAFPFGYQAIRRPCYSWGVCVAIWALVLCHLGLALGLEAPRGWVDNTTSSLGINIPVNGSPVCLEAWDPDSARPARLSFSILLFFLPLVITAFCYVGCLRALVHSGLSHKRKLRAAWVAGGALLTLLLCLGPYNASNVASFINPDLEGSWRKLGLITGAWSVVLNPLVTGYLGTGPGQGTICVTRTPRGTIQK

C[C@H](C(=O)O)[C@H](c1ccc2c(c1)O[C@H](C1CN(Cc3cc(C(F)(F)F)ccc3C(F)(F)F)C1)CC2)C1CC1 [AP3]
Mouse GPR40 Receptor Activation (%) (mouse GPR40; dose 1.50E-11 M): -3.27%
Mouse GPR40 Receptor Activation (%) (mouse GPR40; dose 1.55E-08 M): 446%
Mouse GPR40 Receptor Activation (%) (mouse GPR40; dose 2.43E-10 M): 50%
Mouse GPR40 Receptor Activation (%) (mouse GPR40; dose 2.49E-07 M): 525%
Mouse GPR40 Receptor Activation (%) (mouse GPR40; dose 3.89E-09 M): 371%
Mouse GPR40 Receptor Activation (%) (mouse GPR40; dose 4.00E-12 M): -5%
Mouse GPR40 Receptor Activation (%) (mouse GPR40; dose 6.10E-11 M): 5%
Mouse GPR40 Receptor Activation (%) (mouse GPR40; dose 6.22E-08 M): 431%
Mouse GPR40 Receptor Activation (%) (mouse GPR40; dose 9.72E-10 M): 174%
%Act, Mouse GPR40, Functional Assay (mouse GPR40; individual determinations): 596% and 682% and 213% and 314% and 487% and 456% and 680% and 434% and 501% and 418%
EC50 (mouse GPR40; individual determinations, read-out: EC50 (nM), Mouse GPR40, Functional Assay): 0.64 nM and 0.73 nM and 1.06 nM and 1.33 nM and 1.52 nM and 2.22 nM and 2.5 nM and 0.46 nM and 0.58 nM and 0.59 nM
Efficacy (% Activation), Mouse (mouse GPR40; [3]): (478%)
EC50 (mouse GPR40; mean ± SD, n = 2–20, IP accumulation, read-out: Potency [EC50, nM] ± SD, Mouse): 1.2 ± 0.72 nM
Human GPR40 Receptor Activation (%) (human GPR40 [1]; dose 1.50E-11 M): -1.6%
Human GPR40 Receptor Activation (%) (human GPR40 [1]; dose 1.55E-08 M): 280%
Human GPR40 Receptor Activation (%) (human GPR40 [1]; dose 2.43E-10 M): 54%
Human GPR40 Receptor Activation (%) (human GPR40 [1]; dose 2.49E-07 M): 306%
Human GPR40 Receptor Activation (%) (human GPR40 [1]; dose 3.89E-09 M): 288%
Human GPR40 Receptor Activation (%) (human GPR40 [1]; dose 4.00E-12 M): -5%
Human GPR40 Receptor Activation (%) (human GPR40 [1]; dose 6.10E-11 M): 7%
Human GPR40 Receptor Activation (%) (human GPR40 [1]; dose 6.22E-08 M): 328%
Human GPR40 Receptor Activation (%) (human GPR40 [1]; dose 9.72E-10 M): 183%
Human GPR40 Receptor Activation (%) (human GPR40 [1]; dose 9.95E-07 M): 328%
%Act, HUMAN GPR40, Functional Assay (human GPR40 [1]; individual determinations): 407% and 332% and 338% and 274% and 324% and 328% and 239% and 282% and 383% and 273%
EC50 (human GPR40 [1]; individual determinations, read-out: EC50 (nM), HUMAN GPR40, Functional Assay): 0.32 nM and 0.43 nM and 0.46 nM and 0.47 nM and 0.73 nM and 0.8 nM and 0.91 nM and 0.19 nM and 0.24 nM and 0.27 nM
Efficacy (% Activation), Human (human GPR40 [1]; [3]): (318%)
EC50 (human GPR40 [1]; mean ± SD, n = 2–20, IP accumulation, read-out: Potency [EC50, nM] ± SD, Human): 0.48 ± 0.25 nM
% Bound Normalized to 100 (human GPR40 [2]; dose 0.318285 nM): 82.24%
%Bound (human GPR40 [2]; dose 0.318285 nM): 88.22%
% Bound Normalized to 100 (human GPR40 [2]; dose 1.00578 nM): 93.26%
%Bound (human GPR40 [2]; dose 1.00578 nM): 99.24%
% Bound Normalized to 100 (human GPR40 [2]; dose 3.17827 nM): 115.15%
%Bound (human GPR40 [2]; dose 3.17827 nM): 121.13%
% Bound Normalized to 100 (human GPR40 [2]; dose 10.0433 nM): 125.44%
%Bound (human GPR40 [2]; dose 10.0433 nM): 131.41%
% Bound Normalized to 100 (human GPR40 [2]; dose 31.7369 nM): 126.76%
%Bound (human GPR40 [2]; dose 31.7369 nM): 132.74%
% Bound Normalized to 100 (human GPR40 [2]; dose 100.289 nM): 126.17%
%Bound (human GPR40 [2]; dose 100.289 nM): 132.15%
% Bound Normalized to 100 (human GPR40 [2]; dose 316.912 nM): 135.28%
%Bound (human GPR40 [2]; dose 316.912 nM): 141.26%
% Bound Normalized to 100 (human GPR40 [2]; dose 1001.44 nM): 137.19%
%Bound (human GPR40 [2]; dose 1001.44 nM): 143.17%
% Bound Normalized to 100 (human GPR40 [2]; dose 3164.56 nM): 164.81%
%Bound (human GPR40 [2]; dose 3164.56 nM): 170.79%
% Bound Normalized to 100 (human GPR40 [2]; dose 10000 nM): 174.51%
%Bound (human GPR40 [2]; dose 10000 nM): 180.49%
Rat GPR40 Receptor Activation (%) (rat GPR40; dose 1.50E-11 M): -10%
Rat GPR40 Receptor Activation (%) (rat GPR40; dose 1.55E-08 M): 330%
Rat GPR40 Receptor Activation (%) (rat GPR40; dose 2.43E-10 M): 24%
Rat GPR40 Receptor Activation (%) (rat GPR40; dose 2.49E-07 M): 412%
Rat GPR40 Receptor Activation (%) (rat GPR40; dose 3.89E-09 M): 269%
Rat GPR40 Receptor Activation (%) (rat GPR40; dose 4.00E-12 M): -6.43%
Rat GPR40 Receptor Activation (%) (rat GPR40; dose 6.10E-11 M): -0.311%
Rat GPR40 Receptor Activation (%) (rat GPR40; dose 6.22E-08 M): 389%
Rat GPR40 Receptor Activation (%) (rat GPR40; dose 9.72E-10 M): 121%
Rat GPR40 Receptor Activation (%) (rat GPR40; dose 9.95E-07 M): 389%
%Act, Rat GPR40, Functional Assay (rat GPR40; individual determinations): 265% and 529% and 336% and 568% and 267% and 374% and 399% and 444% and 459% and 365% and 466% and 382%
EC50 (rat GPR40; individual determinations, read-out: EC50 (nM), Rat GPR40, Functional Assay): 0.79 nM and 0.8 nM and 0.9 nM and 1.01 nM and 1.46 nM and 1.5 nM and 2.03 nM and 2.24 nM and 2.29 nM and 0.57 nM and 0.7 nM and 0.75 nM
Efficacy (% Activation), Rat (rat GPR40; [3]): (405%)
EC50 (rat GPR40; mean ± SD, n = 2–20, IP accumulation, read-out: Potency [EC50, nM] ± SD, Rat): 1.3 ± 0.63 nM

— paper PMC5650142, “GPR40 partial agonists and AgoPAMs: Differentiating effects on glucose and hormonal secretions in the rodent” (PLoS ONE, 2017)
